Literature values in patent US20220257548A1, “ORAL COMBINATION DRUG FORMULATION COMPRISING A NON-STEROIDAL ANTI-INFLAMMATORY DRUG AND A COMPLEMENTARY LOW DOSE OF TRANEXAMIC ACID FOR THE TREATMENT OF MENSTRUAL PAIN ACCOMPANIED WITH EXCESSIVE MENSTRUAL BLOOD LOSS” (ARSTAT, INC, priority 2011, published 2022).
Like-named read-outs stand apart in the source and are kept apart here.

Key:
[1] = tested on: menstrual blood loss (MBL) in women
[2] = tested on: menstrual blood loss (MBL) in women with menorrhagia; conditions: for mean percent change in MBL: Lysteda clinical study
[3] = 6 g/day

## Cc1cccc(Nc2ccccc2C(=O)O)c1C [mefenamic acid]
[1]; 500 mg three times daily during the menstrual period, women clinically diagnosed with menorrhagia (baseline MBL>80 mL)
  reduction in MBL: 30%
[1]; 500 mg three times daily during the menstrual period, women with no clinical diagnosis of menorrhagia (baseline MBL<80 mL)
  reduction in MBL: 19%

## O=C(O)Cc1ccccc1Nc1c(Cl)cccc1Cl [diclofenac sodium]
[1]; 50 mg four times daily on Day 1 and three times on the following four days of the menstrual period
  reduction in MBL: 24%

## CC(C)Cc1ccc(C(C)C(=O)O)cc1 (centres unmarked) [ibuprofen]
[1]; 200 mg administered three times daily
  reduction in MBL: 16%
[1]; 400 mg administered four times daily
  reduction in MBL: 32%

## NC[C@H]1CC[C@H](C(=O)O)CC1 [tranexamic acid]
[2]; 3900 mg/day regimen
  limitations on social, leisure and physical activities: significantly reduces
[2]; Lysteda NDA medical review
  difference versus placebo in reduction of large stains, small and large clots and changes in serum ferritin levels: no statistically significant differences
  subjects returned to normal MBL after treatment (mean on-treatment MBL of less than 80 mL): 44%
[2]; oral tranexamic acid 1950 mg/day regimen
  mean percent change in MBL: approximately 25%
[2]; oral tranexamic acid 3900 mg/day dose
  mean percent change in MBL: 39%
[3]
  risk of gastrointestinal adverse events: increased
